# pIC50: −log10 of the molar value.
# Columns and labels:
# [1] = target: T1, serotonin-2 (HT-2) receptor (Rattus norvegicus, UniProt P14842); assay: serotonin-2 (HT-2) receptor binding, inhibition of specific binding of ^3 H-ketanserin in frontal/parietal cortex membranes; set-up: species or system male Sprague-Dawley rats; settings: specific binding of ^3 H-ketanserin (0.4 nM)
# T1 construct: membrane preparations of frontal/parietal cortex from male Sprague-Dawley rats; from tissue; host or cells: rat frontal/parietal cortex membranes (male Sprague-Dawley)
# T1 sequence (P14842 whole entry): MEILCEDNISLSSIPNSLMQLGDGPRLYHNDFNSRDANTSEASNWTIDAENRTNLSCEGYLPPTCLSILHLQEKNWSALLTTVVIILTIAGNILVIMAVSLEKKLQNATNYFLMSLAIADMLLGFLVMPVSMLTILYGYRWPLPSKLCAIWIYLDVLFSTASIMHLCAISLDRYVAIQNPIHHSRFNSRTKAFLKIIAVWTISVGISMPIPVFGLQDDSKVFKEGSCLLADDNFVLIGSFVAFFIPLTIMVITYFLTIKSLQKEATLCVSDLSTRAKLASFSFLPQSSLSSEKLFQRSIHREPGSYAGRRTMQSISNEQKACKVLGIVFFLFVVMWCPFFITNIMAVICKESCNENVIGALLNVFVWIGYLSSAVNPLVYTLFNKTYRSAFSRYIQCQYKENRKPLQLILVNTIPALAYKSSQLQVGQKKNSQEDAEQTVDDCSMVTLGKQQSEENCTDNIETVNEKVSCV
# Protocol: The serotonin-2 (HT-2) receptor binding properties, indicative of the serotonin-2 antagonist activity of the compounds of the invention, are determined in vitro by determining their ability to inhibit the specific binding of ^3 H-ketanserin, essentially as described by Battaglia et al in Life Sciences 33, 2011 (1983), in membrane preparations of frontal/parietal cortex from male Sprague-Dawley rats (200-225 g). IC50 values, representing the concentration of compound required to displace 50% of specific binding of 0.4 nM of ^3 H-ketanserin, are determined by log-logit analysis of the specific binding data. Selectivity for the HT-2 receptors can be determined by also measuring specific binding to serotonin-1 (HT-1) receptors, e.g. according to Middlemiss, D. N. and Fozard, J. R. in Eur. J. Pharmacol. 90, 151 (1980).
# serotonin-2 receptor = target: T2, serotonin-2 receptor (Rattus norvegicus, UniProt P14842); assay: head twitch test, inhibition of the head twitch induced by 5-hydroxytryptophane in the rat; assay type: in vivo, Male Wistar rats
# T2 construct: Male Wistar rats (120-180 g) are fasted for 18 hr prior to testing; from tissue; host or cells: whole living animal (male Wistar rat), endogenous receptor of the central nervous system
# T2 sequence (P14842 whole entry): as above
# Protocol: The serotonin-2 antagonism or blockade is determined in vivo by measuring the inhibition of the head twitch induced by 5-hydroxytryptophane (the metabolic precursor of serotonin) in the rat. The head twitch test for assessing central nervous system serotonin-2 receptor antagonism in the rat is described in Neuropharmacology 16, 663 (1977) and in J. Pharmacol. Exp. Ther. 228, 133 (1984). The test is carried out as follows:
# Male Wistar rats (120-180 g) are fasted for 18 hr prior to testing but allowed water ad libitum. All animals are pretreated with the peripheral decarboxylase inbihitor alpha-methyl-DOPA hydrazine (carbidopa 25 mg/kg i.p., 4.0 ml/kg) followed 30 min later by 5-hydroxytryptophan (5HTP 100 mg/kg s.c., 4.0 ml/kg). Ninety minutes after receiving 5HTP, the rats are placed individually in plexiglas observation cages and the frequency of head twitches for each animal is counted over a 10 min observation period. The test compound or vehicle is administered at either 0.5 hr at 1.0 ml/kg i.p. or at 1, 2 or 4 hr at 10 ml/kg p.o. prior to the observation period. ED50 values are determined by probit analysis.
smiles,measurement,setting,value
"CCSC[C@H]1CN(C)C[C@H]2c3cc(OC)cc(Br)c3OC[C@H]12 (relative stereo) [Example 4, (±)-[4R*,4aS*,10bR*]-7-Bromo-4-(ethylthiomethyl)-1,3,4,4a,5,10b-hexahydro-9-methoxy-2-methyl-2H-[1]benzopyrano[4,3-c]pyridine]",pIC50,[1],7.66
same,ED50,"serotonin-2 receptor; 0.5 h, ip (at 30 minutes)",1.1 mg/kg
same,ED50,serotonin-2 receptor; po (at 1 hour),0.71 mg/kg
